Experimental data: patent US20050215548A1 (Cyclacel Limited, priority 2002, published 2005)
Residues, ends and D or L forms follow the SMILES beside them. *: point of attachment. Cbz = O=C(OCc1ccccc1)*; CH2F = FC*

Experiments:
HDM2 = biological target: T1, HDM2 (Homo sapiens, UniProt Q00987); assay: Fluorescence polarisation competitive HDM2 binding assay; details: text of Example 10, refer Table 1; read-out: competitive inhibition IC50
T1 construct: Recombinant HDM2 (1.5 μg per well) in TBS-BSA buffer
T1 sequence (Q00987 whole entry): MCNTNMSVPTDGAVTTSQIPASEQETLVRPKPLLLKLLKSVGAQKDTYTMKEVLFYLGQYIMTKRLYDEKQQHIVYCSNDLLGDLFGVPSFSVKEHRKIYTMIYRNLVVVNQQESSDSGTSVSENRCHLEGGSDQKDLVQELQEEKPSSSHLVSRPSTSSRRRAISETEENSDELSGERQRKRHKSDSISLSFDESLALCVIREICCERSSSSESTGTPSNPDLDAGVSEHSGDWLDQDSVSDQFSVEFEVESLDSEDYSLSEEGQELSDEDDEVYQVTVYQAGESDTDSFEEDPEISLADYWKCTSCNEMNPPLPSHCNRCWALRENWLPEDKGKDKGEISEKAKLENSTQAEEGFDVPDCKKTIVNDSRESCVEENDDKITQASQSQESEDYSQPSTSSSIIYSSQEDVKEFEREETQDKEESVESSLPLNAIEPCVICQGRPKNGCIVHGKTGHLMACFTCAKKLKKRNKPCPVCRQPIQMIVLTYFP
In short: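 Recombinant HDM2 (1.5 μg/well) was preincubated 5 min at room temperature with serially diluted compound in 50 mM Tris pH 7.4, 150 mM NaCl, 0.1% BSA, 5% DMSO final. Fluorescein-labelled p53 peptide (0.2 μM) was then added for 45 min. Polarisation was read at 485/520 nm and IC50 derived from dose-response curves.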

H1299 = assay: 72-h MTT cytotoxicity assay, H1299; format: cell-based; details: Homo sapiens, NCI-H1299; 72-h MTT; Table 1; read-out: IC50 Anti-proliferative effect on cell line H 1299
In short: (§1)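 Antiproliferative activity was measured on human tumour lines of differing genetic background: SJSA-1, a primitive multipotential bone sarcoma with wild-type p53 and overexpressed HDM2; H1299, a large cell lung carcinoma, p53 null with low HDM2; and AGS, a gastric adenocarcinoma carrying wild-type p53.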

[1] = tested on: AGS, H1299, MCF7 or SJSA1 cells; assay: Cell morphology (cell rounding); format: cell-based, human; details: five times IC50
Excerpt: (§2) Equal amounts of cell lysate were separated by SDS-PAGE and analysed by immunoblotting using the indicated antibodies. An estimation of the extent of cell rounding is indicated above each lane. The arrow indicates the position of a 85-kDa cleavage product of PARP, indicative of apoptosis. (B) The effect of compound 2 on the levels of the cell cycle proteins in AGS cells (wild-type 53). […] Equal amounts of cell lysate were separated by SDS-PAGE and analysed by immunoblotting using the indicated antibodies. An estimation of the extent of cell rounding is indicated above each lane. (C) The effect of negative control compound (refer Example 10), compound 2, cisplatin, and anisomycin on the levels of key proteins in MCF7 cells. […] Cisplatinum and anisomycin (a transcription inhibitor) treatments were with 50 μM or 37 μM, respectively. Cells were harvested at various time points; afterwards lysates were prepared and separated by SDS-PAGE and analysed by immunoblotting. The proteins detected are indicated. The extent of rounded or floating cells and the percentage viable cells were assessed. […] Equal amounts of cell lysate were separated by SDS-PAGE and analysed by immunoblotting using a range of antibodies. An estimation of the extent of cell rounding is indicated above each lane. […] SJSA1 cells were treated with 5 times [IC50] of compound 2 and collected at the indicated time points. Equal amounts of cell lysate were separated by SDS-PAGE and analysed by immunoblotting using a range of antibodies. An estimation of the extent of cell rounding is indicated above each lane.
Cells were treated with 5 times [IC50] of compound 2 and collected at various time points. The percentage of rounded cells was counted before cells were trypsinised and counted for cell viability using trypan blue.
Cells were lysed and equal amounts were analysed by SDS-polyacrylamide gel electrophoresis (SDS-PAGE) and immunoblotting. […] The reduction in E2F-1 levels correlated with reduction in E2F transcriptional activity as determined by an E2F-dependent luciferase reporter assay (refer Example 6).

[2] = tested on: key proteins in the HDM2 pathway; assay: SDS-PAGE and immunoblotting of key proteins in the HDM2 pathway; format: cell-based, human
Excerpt: as §2, with “The arrow indicates the position of a 85-kDa cleavage product of PARP, indicative of apoptosis.” left out
Many types of cellular stress converge on the p53 pathway and induce its activity. […] The biological effect of bisarylsufonamides on cellular level was studies using representative compounds (mainly compound 2) and number of cell lines with different HDM2 and p53 status. These were overexpressing Hdm2 (SJSA1—osteosarcoma), wild type p53 and normal levels of HDM2 (AGS—gastric adenocarcinoma, MCF7—breast adenocarcinoma), or p53 null, low levels of HDM2 (H1299—large cell lung carcinoma).
Cells were lysed and equal amounts were analysed by SDS-polyacrylamide gel electrophoresis (SDS-PAGE) and immunoblotting.

AGS = assay: 72-h MTT cytotoxicity assay, AGS; format: cell-based; details: Homo sapiens, 72-h MTT, Table 1, read-out: IC50 Anti-proliferative effect on cell line AGS
In short: as §1

SJSA-1 = assay: 72-h MTT cytotoxicity assay, SJSA-1; format: cell-based; details: Homo sapiens, SJSA-1; 72-h MTT; Table 1; read-out: IC50 Anti-proliferative effect on cell line SJSA-1
In short: as §1

AGS cells = assay: Caspase activity (casp ACE assay), AGS; format: cell-based, human; details: 24 hours
Procedure: In more detail: (A) Cells were treated with […] [IC50] of compound 2 or cisplatinum and collected at the time points indicated. Cell lysates were prepared, the caspase activity was determined using the casp ACE assay and values were plotted on a graph. (B) Cells were treated with 5 times [IC50] of compound 2 or cisplatinum and collected at the time points indicated. AGS cells were also incubated with compound 2 in the presence of a caspase inhibitor Z-VAD.fmk. Cell lysates were prepared, the caspase activity was determined using the casp ACE assay and values were plotted on a graph.
To characterise the apoptosis-inducing properties of bisarylsulfonamides caspase ⅓ activty was measured. AGS or H1299 cells were treated with a low concentration of compound 2 or cisplatin corresponding to twice the IC50 value (FIG. 6A). Morphological changes were detected in 10-20% of cells by 72 hours corresponding to an induction of caspase activity first detected at 48 hours, increasing by 72 hours. We also treated AGS and H1299 cells with higher concentrations corresponding to five times the IC50 (FIG. 6B). In this experiment we included a […], Z-VAD.fmk to determine the caspase responsible.

Structure (SMILES)	IC50 (HDM2) [µM]	IC50 (H1299) [µM]	cell rounding [1]	PARP cleavage / PARP levels ([2]; five times IC50, 85-kDa cleavage product marker for apoptosis)	changes in protein levels and cell morphology ([2]; negative control: MCF7, 13.5 μM, 68/69: MCF7 and H1299 at five times IC50 of 69, 49: AGS, SJSA1, H1299)	IC50 (AGS) [µM]	IC50 (SJSA-1) [µM]	caspase activity induced by compound 2 in presence of caspase inhibitor (AGS cells)
O=[N+]([O-])c1csc(S(=O)(=O)Nc2ccc(Cl)cc2)c1 [Compound 69, 4-Nitro-thiophene-2-sulfonic acid (4-chloro-phenyl)-amide]	151	30	No rapid cell rounding	Rapid reduction in PARP levels	induced changes in both morphology and protein levels	19	28	–
COC(=O)C[C@H](NC(=O)[C@H](C)NC(=O)[C@@H](NC(=O)OCc1ccccc1)C(C)C)C(=O)CF [Z-VAD.fmk, reference compound] (Cbz-Val-Ala-Asp(OMe)-CH2F)	–	–	–	–	–	–	–	reduced the caspase activity to background levels
